The values below come from patent publication US4061757A, “Compounds having juvenile hormone activity” (A/S Cheminova, priority 1971, dated 1977).

In assay [1] the test system is Tenebrio molitor L. Briefly: Tenebrio test (topical application to pupae, morphological inhibition of adult characters). Format: in vivo, Tenebrio molitor L (yellow mealworm). To be noted: Table I; topical, acetone solution, 0.5 to 2 hours old pupae (150 mg), 27° C, 70% RH. The procedure:
(§1) The biological tests are examplified by tests on the yellow mealworm, Tenebrio molitor L, Galleria mellonella L, Culex pipiens L, Aedes aegypti L and Drosophila melanogaster L.
Tenebrio test: The material in question is applied topically to the abdomen of 0.5 to 2 hours old pupae of the said species, as a solution in acetone. The pupae are held at 27° C and 70% RH, ecdysis occuring 5 to 7 days later. The degree of inhibition of adult characters is referred to an arbitrary scale, where a morphologically perfect adult is given the character 0%, and a perfect second pupae 100%. In Table 1 is given the morphological inhibition dose 50% (ID 50 morph.) for some of the chemicals invented, in μg per standard pupa (150 mg). ID 50 morph. refers to specimens showing predominantly adult characters in the front part, pupal characters in the abdomen.
ID50 morph is as said above the dose causing development of individuals showing predominantly adult characters in the front part and pupal characters in the abdomen. It is known that ID50 -doses in general are 10 times greater than ED50 -doses.

Assay [2] deals with Culex pipiens L. Briefly: Culex test (mature larvae, loss of 50% of test animals). The assay is classed as in vivo. The conditions noted are these: Table I, read-out: IC-50 eclos. The procedure:
The biological tests are examplified by tests on the yellow mealworm, Tenebrio molitor L, Galleria mellonella L, Culex pipiens L, Aedes aegypti L and Drosophila melanogaster L. Culex test: The compounds are tested on mature larvae. The concentration (IC-50 eclos.) is given in ppm.

Assay [3] concerns Drosophila melanogaster L. Briefly: Drosophila test (compound in agar based food, pupae which fail in ecdysis). To be noted: Table I, in artificial agar based food, pupae failing in ecdysis. The assay is classed as in vivo. How it is done: as §1
Drosophila test: One ml of acetone solution of the compound to be tested is mixed with an artificial agar based food mixture just before this solidifies. Ten less than one day old adult flies -- five of each sex -- are added, and all abnormalities observed for two generations. Juvenile hormone activity is especially noted in the pupae which fail in ecdysis. EC50 -eclos. is given in ppm.

Assay [4] relates to Aedes aegypti L. Briefly: Aedes test (same test as for Culex). The assay is classed as in vivo. The conditions noted are these: Table I, mature larvae, loss of 50% of test animals, read-out: IC-50 eclos. How it is done: as §1
Culex test: The compounds are tested on mature larvae. The concentration (IC-50 eclos.) is given in ppm.
Aedes test: The same test as for Culex.

In assay [5] the test system is Tenebrio. To be noted: Table II, known compounds; dose causing abnormal development of 50% of treated pupae; data from Nature, Vol. 232, Aug. 13, 1971; cited from earlier work.

`CCc1ccc(OCC=C(C)CCC2OC2(C)CC)cn1` (stereo not shown) [Compound 30, 6,7-Epoxy-3,7-dimethyl-1l-(6'-ethyl-3'-pyridyloxy)-2l-nonene] showed an ID-50 morph. in assay [1] of 0.0003 μg/pupa. In addition, the IC50 for inhibition of adult emergence (eclosion) in assay [2] is less than 10 µg/mL. This compound also came in with an EC-50 eclos in assay [3] of more than 100 ppm. Besides, the IC50 (inhibition of eclosion) in assay [4] turned out to be 0.5 µg/mL.
With `CCc1ccc(OCCC(C)CCC2OC2(C)C)cn1` (stereo not shown) [Compound 38, 6,7-Epoxu-3,7-dimethyl-1l-(6'-ethyl-3'-pyridyloxy)-octane], the ID-50 morph. in assay [1] amounted to 0.005 μg/pupa. Moreover, in assay [2], the IC50 for inhibition of adult emergence (eclosion) is less than 10 µg/mL. The same compound displayed an EC-50 eclos in assay [3] of more than 100 ppm. Also, the IC50 (inhibition of eclosion) in assay [4] was less than 1 µg/mL.
For `CCOC(C)(C)CCCC(C)CCOc1ccc(CC)nc1` (stereo not shown) [Compound 39, 7-Ethoxy-3,7-dimethyl-1l-(96'-ethyl-3'-pyridyloxy)-octane], the ID-50 morph. in assay [1] was determined as 0.01 μg/pupa. Also, in assay [2], the IC50 for inhibition of adult emergence (eclosion) was less than 10 µg/mL. Moreover, in assay [3], the EC-50 eclos is given as more than 100 ppm. The IC50 (inhibition of eclosion) in assay [4] is 0.5 µg/mL.
`C/C(=C\COc1ccc(C)cc1)CCC1OC1(C)C` (stereo not shown) [R CH3, n 1]: the ED50 in assay [5] was 0,05 μg/pupa.
